Measured values taken from patent US20230091336A1, “CANNABINOID COMPOSITIONS” (priority 2020, published 2023).
“Also recorded” adds a separate entry of the source.

Key:
[1] = test system: SOCE in HEK-293 human embryonic kidney cells; assay: SOCE Fura-2 bioassay in HEK293 cells; assay type: cell-based; details: for IC50: Homo sapiens, HEK293, read-out: IC50 SOCE, purified cannabinoids, HEK-293, Table 5
[2] = test system: SOCE in Luva human mast cells; assay: SOCE Fura-2 bioassay in Luva cells; details: Homo sapiens, Mast cell, read-out: IC50 SOCE, purified cannabinoids, Luva; Table 5
Protocol: Briefly, SOCE inhibition experiments were performed as described in Example 8, using each of the hemp extracts listed below and in Tables 6A and 6B at six concentrations each in each of the five cell types listed above to obtain dose response curves, as shown in FIGS. 11A-11SS. […] All data are averages of three independent runs±SEM. […] Hemp extracts used in FIGS. 11A-11SS are: Sour Space Candy (SSC), Hawaiian Haze (HH), Special Sauce (SS), Suver Haze (SH), White CBG (WCBG), Elektra (ELEK), Cherry Wine (CW), Lifter (LIF), Grape Soda (GS).

[3] = test system: UUO mice; assay: Unilateral Ureteral Obstruction (UUO) mouse model of kidney fibrosis; assay type: in vivo; details: for interstitial area increase in UUO kidneys: FIG. 19D; for macrophage infiltration in UUO kidneys (F4/80): FIG. 20B; for α-SMA production in UUO kidneys vs vehicle (immunostaining): FIG. 24B; for urine / water intake / body weight / kidney weight CLK / kidney weight UUO: UUO mice at day 7; for urine / water intake / kidney weight CLK / kidney weight UUO: 10 mg/kg i.p. daily; for body weight: 10 mg/kg i.p. daily day 0 to day 6, n = 5; for magnesium output in urine vs vehicle: 24 h urine, FIG. 18; for kidney weight CLK: contralateral kidney; for phosphorylated Smad3 protein in UUO kidneys (Western blotting) / α-SMA protein in UUO kidneys (Western blotting): cortical kidney tissue, FIG. 23; for collagen type I production in UUO kidneys vs vehicle / fibronectin production in UUO kidneys vs vehicle: immunostaining; for collagen type I production in UUO kidneys vs vehicle: FIG. 21B; for fibronectin production in UUO kidneys vs vehicle: FIG. 22B; for tubular dilation in UUO kidneys: number of dilated tubules per field, FIG. 19B; for kidney weight UUO: obstructed kidney; for tubule loss in UUO kidneys: total number of renal tubules per field, FIG. 19C
Excerpt: The Unilateral Ureteral Obstruction (UUO) model is a mouse model of kidney disease that is associated with and characterized by progressive tubulointerstitial injury and fibrosis. This model can be used to identify many of the molecular and cellular events that occur in progressive kidney fibrosis. […] TRPM7 represents a promising therapeutic target in kidney fibrosis and TRPM7 inhibitors may act as anti-fibrotic pharmacological tools.
C57BL/6 male mice (6 wks weighing 20-25 g) were used in the UUO model. Under isoflurane (3.0% for induction and 1.5% for maintenance) anesthesia, ureteral obstruction was achieved by ligating the left ureter with a 3-0 silk suture through a left lateral incision. Control and experimental groups for these experiments were created as follows:
Group 1: Control (5 mL/kg body weight) 5% ethanol and 5% Tween80 in 0.9% NaCl
Group 2: CBGA (10 mg/kg body weight) 2 mg/mL in 5% ethanol, 5% Tween80 and 0.9% NaCl
Group 3: CBD (10 mg/kg body weight) 2 mg/mL in 5% ethanol, 5% Tween80 and 0.9% NaCl
Group 4: CBGA (10 mg/kg body weight)+CBD (10 mg/kg body weight), 2 mg/mL each in 5% ethanol, 5% Tween80 and 0.9% NaCl
Mice were injected once daily with 10 mg/kg cannabinoids (CBGA, CBD, or both) as well as vehicle control daily beginning immediately after surgery and until Day 6. Mice were euthanized at Day 7 after surgery. Obstructed kidneys (UUO) and non-obstructed contralateral kidneys (CLK) were collected and stored.
FIGS. 19A-19D depict the protection of kidney structure following cannabinoid treatment, as observed during experiments.
Immunohistochemical analysis. To evaluate renal fibrosis in UUO kidneys, immunoreactivities of F4/80 (macrophage marker), collagen type I, fibronectin, and α-smooth muscle actin (α-SMA) were determined using a standard biotin-streptavidin-peroxidase method. The staining-positive areas were calculated by Image J. The threshold was set to automatically compute the positive areas for each staining and the ratio of the positive areas to the whole interstitial area. Number of macrophages (FIG. 20A and FIG. 20B), collagen type I production in stained kidney tissue (FIG. 21A and FIG. 21B), and fibronectin production in stained kidney tissue (FIG. 22A and FIG. 22B) were quantified in UUO kidneys, showing that extracellular matrix production and/or deposition in kidney tissue were also affected with CBGA treatment.

Row | Structure (SMILES) | IC50 [1] [nM] | IC50 [2] [nM] | interstitial area increase in UUO kidneys [3] | macrophage infiltration in UUO kidneys (F4/80) [3] | α-SMA production in UUO kidneys vs vehicle (immunostaining) [3] | urine [3] [mL] | water intake [3] [mL] | body weight [3] [g] | magnesium output in urine vs vehicle ([3]; UUO mice day 7) | kidney weight CLK [3] [mg] | phosphorylated Smad3 protein in UUO kidneys (Western blotting) [3] | α-SMA protein in UUO kidneys (Western blotting) [3] | collagen type I production in UUO kidneys vs vehicle [3] | fibronectin production in UUO kidneys vs vehicle [3] | tubular dilation in UUO kidneys [3] | kidney weight UUO [3] | tubule loss in UUO kidneys [3] | inhibitory effect in immune cells compared with non-immune HEK293 cells ([1]; 10 μM, HEK293 (FIG. 8) vs immune cells) | kidney atrophy / loss of UUO kidney weight vs vehicle ([3]; UUO mice day 7, 10 mg/kg daily, FIG. 17B, 10 mg/kg) | recovery of body weight loss vs vehicle ([3]; UUO mice, 10 mg/kg daily, FIG. 16)
1 | C=C(C)[C@@H]1CCC(C)=C[C@H]1c1c(O)cc(CCCCC)cc1O [CBD, (1′R,2′R)-5′-methyl-4-penlyl-2′-(prop-1-en-2-yl)-1′,2′,3′,4′-tetrahydro-[1,1′-biphenyl]-2,6-diol] | > 50000 | 2530 | inhibited interstitial area increase | strongly inhibited macrophage infiltration | inhibited | 2.01 ± 0.44 | 4.9 ± 0.4 | 22.08 ± 0.45 | recovered | 175 ± 0.7 | suppressed | suppressed | inhibit | inhibit | inhibited tubular dilation | 172 ± 0.8^ mg | inhibited tubule loss |  |  | 
2 | CCCCCc1cc(O)c(C/C=C(\C)CCC=C(C)C)c(O)c1C(=O)O [CBGA, (E)-3-(3,7-dimethylocta-2,6-dien-1-yl)-2,4-dihydroxy-6-pentylbenzoic acid] | 3600 | 270 | inhibited increases in interstitial area | inhibited macrophage infiltration | inhibited | 1.88 ± 0.17 | 4.7 ± 0.2 | 21.55 ± 0.60 | recovered | 167 ± 0.7 | suppressed | suppressed | inhibited | inhibited | inhibited tubular dilation | 163 ± 0.9^ mg | inhibited tubule loss | more potent | less kidney atrophy; also recorded: ameliorated the loss of kidney weight | faster recovery of body weight loss
